The results in this text go back to ChEMBL document CHEMBL1201862, “PubChem BioAssay data set” (2004).

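Exposure lasted 48 hours, with cells grown in 96-well plates and compounds tested at five concentrations. Here, GI50 denotes the concentration required for 50% inhibition of growth.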 Active and inactive are the calls of the source. No stated cut-off is given here; in the data, active = GI50 up to about 1.1 µM and inactive = higher. A value given as a limit tells only on which side of the number the result lay.

Test systems include CCRF-CEM; HL-60; LXFL 529; SNB-75; UACC-257; SF-268; 786-0; NCI-H522; HCT-15; OVCAR-8; NCI-H23; U-251; SN12C; A498; SW-620; SF-295; UACC-62; RPMI-8226.
Holding throughout (experiment): growth of human tumour cells (NCI), 48 h

As for `COc1cc2cc3c4c(cc(OC)c(OC)c4c2cc1OC)CCN3C(=O)N(C)C`, the GI50 with CCRF-CEM was 96.6 µM (inactive); in the experiment on HL-60, > 100 µM (inactive); with LXFL 529, 77.4 µM (inactive); in the experiment with SNB-75 it was 19.5 µM (inactive); with UACC-257, > 100 µM (inactive); in the experiment with SF-268 it was > 100 µM (inactive). In addition, the GI50 in the experiment with 786-0 was 44.5 µM (inactive); with NCI-H522 it was 29.9 µM (inactive); in the experiment on HCT-15 it was over 100 µM; with OVCAR-8, > 100 µM (inactive); in the experiment with NCI-H23, > 10 µM (inactive); in the experiment with U-251 it was > 100 µM (inactive). Also, the GI50 was > 100 µM (inactive) in the experiment with SN12C; 97.3 µM (inactive) with A498; > 100 µM (inactive) with SW-620; 37.8 µM (inactive) in the experiment on SF-295; > 100 µM (inactive) in the experiment with UACC-62; 82.6 µM (inactive) with RPMI-8226.
As to `COC(=O)C1=C(CO)C2C=CC1C2` (centres undefined), the GI50 with CCRF-CEM, in the experiment on HL-60, in the experiment on LXFL 529, in the experiment on SNB-75, in the experiment with UACC-257 and in the experiment with SF-268 was > 100 µM (inactive) in each case. The GI50 with 786-0 is > 100 µM (inactive); with NCI-H522, > 100 µM (inactive); with HCT-15, over 100 µM; in the experiment on OVCAR-8, > 100 µM (inactive); in the experiment on NCI-H23 it was > 100 µM (inactive); in the experiment with U-251, > 100 µM (inactive). The GI50 with SN12C, with A498, with SW-620, in the experiment on SF-295, with UACC-62 and with RPMI-8226 was > 100 µM (inactive) each time.
In the case of `CCOC(=O)c1c2cccccc2n2c(=O)cc(C)nc12`, the GI50 in the experiment with CCRF-CEM is > 100 µM (inactive); in the experiment with HL-60 it was > 100 µM (inactive); in the experiment on LXFL 529, > 100 µM (inactive); in the experiment with UACC-257, > 100 µM (inactive); with SF-268 it was 69.8 µM (inactive); with 786-0, > 100 µM (inactive). Also, the GI50 was > 100 µM (inactive) in the experiment with NCI-H522; over 100 µM in the experiment with HCT-15; > 100 µM (inactive) in the experiment on OVCAR-8; > 100 µM (inactive) in the experiment with NCI-H23; > 100 µM (inactive) with U-251; > 100 µM (inactive) with SN12C. Further, the GI50 in the experiment on A498 is > 100 µM (inactive); in the experiment with SW-620 it was > 100 µM (inactive); in the experiment on SF-295, > 100 µM (inactive); in the experiment with UACC-62, 71.6 µM (inactive); in the experiment with RPMI-8226, > 100 µM (inactive).
Consider `O=C(CC(=O)c1ccccc1)C(=O)Nc1ccc(Cl)cc1`, for which the GI50 was > 100 µM (inactive) with CCRF-CEM; > 100 µM (inactive) in the experiment with HL-60; > 100 µM (inactive) in the experiment with LXFL 529; > 64 µM (inactive) in the experiment on SNB-75; > 61.5 µM (inactive) in the experiment on UACC-257; > 100 µM (inactive) in the experiment on SF-268. Besides, the GI50 in the experiment on 786-0 was > 67.6 µM (inactive); in the experiment on NCI-H522 it was 97.9 µM (inactive); with HCT-15 it was over 42.9 µM; in the experiment with OVCAR-8, > 100 µM (inactive); in the experiment on NCI-H23, > 100 µM (inactive); with U-251, > 100 µM (inactive). Moreover, the GI50 in the experiment with SN12C is > 100 µM (inactive); in the experiment on A498, > 100 µM (inactive); in the experiment on SW-620 it was > 42.8 µM (inactive); with SF-295 it was > 100 µM (inactive); in the experiment with UACC-62, > 100 µM (inactive); in the experiment on RPMI-8226, > 100 µM (inactive).
With `O=C(/C=C/c1ccccc1F)c1ccc(Cl)c(Cl)c1`, the GI50 with CCRF-CEM was 23.3 µM (inactive); in the experiment on HL-60, 18.9 µM (inactive); in the experiment on LXFL 529 it was 18.3 µM (inactive); with SNB-75, 39.3 µM (inactive); in the experiment on UACC-257, 49.4 µM (inactive); in the experiment on SF-268 it was 38.3 µM (inactive). The GI50 is 17.3 µM (inactive) in the experiment on 786-0; 23.2 µM (inactive) with NCI-H522; 37.1 µM with HCT-15; 33 µM (inactive) in the experiment with OVCAR-8; 14.2 µM (inactive) in the experiment with NCI-H23; > 10 µM (inactive) in the experiment with U-251. Moreover, the GI50 was 35.6 µM (inactive) in the experiment with SN12C; > 39.1 µM (inactive) in the experiment with A498; 29.3 µM (inactive) in the experiment on SW-620; 39.3 µM (inactive) in the experiment with SF-295; 52.8 µM (inactive) with UACC-62; 27.7 µM (inactive) with RPMI-8226.
For the molecule `CC1CCCC(C(=O)/C(=C/c2cccc(Cl)c2)C(=O)C(=O)O)C1` (centres undefined), the GI50 with CCRF-CEM was 19.3 µM (inactive); in the experiment on HL-60, 20 µM (inactive); in the experiment with LXFL 529 it was 19.7 µM (inactive); in the experiment on SNB-75, 29.9 µM (inactive); with UACC-257, 59.8 µM (inactive); with SF-268, 42.1 µM (inactive). The GI50 in the experiment with 786-0 is 17.9 µM (inactive); with NCI-H522 it was 0.0161 µM (active); with HCT-15 it was 13.8 µM; with OVCAR-8, 20.3 µM (inactive); in the experiment on NCI-H23 it was 39.5 µM (inactive); in the experiment on U-251, 17.3 µM (inactive). Further, the GI50 in the experiment with SN12C was 72.1 µM (inactive); with A498 it was > 100 µM (inactive); with SW-620, 14.5 µM (inactive); in the experiment with SF-295 it was 50.4 µM (inactive); in the experiment on UACC-62, 36.9 µM (inactive); in the experiment on RPMI-8226, 14.7 µM (inactive).
For the molecule `COc1ccccc1NC(=O)C1=C(C)NC(C)=C(C(=O)Nc2ccccc2OC)C1/C=C/c1ccccc1`, the GI50 in the experiment with CCRF-CEM is 49.1 µM (inactive); in the experiment on HL-60 it was 60.1 µM (inactive); with LXFL 529, 84.9 µM (inactive); with SNB-75 it was 25.8 µM (inactive); in the experiment on UACC-257, > 100 µM (inactive); in the experiment on SF-268 it was 92.9 µM (inactive). Besides, the GI50 with 786-0 was > 100 µM (inactive); in the experiment with HCT-15, over 100 µM; in the experiment with OVCAR-8, > 100 µM (inactive); in the experiment with NCI-H23 it was > 100 µM (inactive); with U-251, > 100 µM (inactive); in the experiment on SN12C, > 100 µM (inactive). For the same molecule, the GI50 was > 100 µM (inactive) with A498; > 100 µM (inactive) in the experiment with SW-620; > 100 µM (inactive) with SF-295; 97.9 µM (inactive) in the experiment on UACC-62; 55.3 µM (inactive) with RPMI-8226.
Turning to `NC(CCSCC(F)(F)F)C(=O)O` (centres undefined), the GI50 in the experiment with CCRF-CEM, in the experiment with HL-60, in the experiment with LXFL 529, in the experiment with SNB-75, with UACC-257 and with SF-268 was > 100 µM (inactive) throughout. Besides, the GI50 in the experiment with 786-0 is > 100 µM (inactive); with NCI-H522, > 100 µM (inactive); with HCT-15 it was over 100 µM; in the experiment with OVCAR-8, > 100 µM (inactive); in the experiment on NCI-H23, > 100 µM (inactive); in the experiment on U-251, > 100 µM (inactive). The GI50 in the experiment on SN12C, in the experiment on A498, in the experiment with SW-620, with SF-295 and in the experiment on UACC-62 was > 100 µM (inactive) each time.
With `O=C(CC(=O)N1N=C(n2ccc3ccccc32)CC1c1ccccc1)Nc1ccc(Cl)cc1` (centres undefined), the GI50 in the experiment on CCRF-CEM was > 100 µM (inactive); with HL-60 it was > 100 µM (inactive); in the experiment with LXFL 529 it was > 100 µM (inactive); with SNB-75 it was 59.7 µM (inactive); in the experiment on UACC-257, > 100 µM (inactive); in the experiment on SF-268, > 100 µM (inactive). The GI50 is > 100 µM (inactive) in the experiment on 786-0; > 100 µM (inactive) with NCI-H522; over 100 µM in the experiment on HCT-15; > 100 µM (inactive) with OVCAR-8; > 100 µM (inactive) in the experiment with NCI-H23; > 100 µM (inactive) in the experiment with U-251. The GI50 in the experiment with SN12C was > 100 µM (inactive); with A498, > 100 µM (inactive); in the experiment with SW-620 it was > 100 µM (inactive); with SF-295, > 100 µM (inactive); in the experiment with UACC-62, > 100 µM (inactive); with RPMI-8226, 52.1 µM (inactive).
Consider `COc1cc(C2c3cc4c(cc3[C@@H](N(C)C)[C@H]3COC(=O)C23)OCO4)cc(OC)c1O` (some centres undefined), for which the GI50 in the experiment on CCRF-CEM is 49.1 µM (inactive); in the experiment on HL-60, 33.4 µM (inactive); in the experiment on LXFL 529, 35.2 µM (inactive); in the experiment with SNB-75, 93.3 µM (inactive); in the experiment on UACC-257 it was 67.9 µM (inactive); in the experiment on SF-268 it was 46.7 µM (inactive). In addition, the GI50 is 33.2 µM (inactive) with 786-0; 4.4 µM (inactive) in the experiment with NCI-H522; 31.1 µM with HCT-15; 25.5 µM (inactive) with OVCAR-8; 37.7 µM (inactive) with NCI-H23; 34 µM (inactive) in the experiment with U-251. Also, the GI50 was 51.4 µM (inactive) with SN12C; 23.3 µM (inactive) in the experiment with A498; 38.1 µM (inactive) in the experiment with SW-620; > 10 µM (inactive) with SF-295; 33.7 µM (inactive) with UACC-62; 92.3 µM (inactive) in the experiment with RPMI-8226.
Turning to `CC(O)(c1ccc(OCCC[N+](C)(C)C)cc1)C(C)(O)c1ccc(OCCC[N+](C)(C)C)cc1` (centres undefined), the GI50 with CCRF-CEM, with HL-60, in the experiment on LXFL 529, with SNB-75, with UACC-257 and in the experiment with SF-268 was > 100 µM (inactive) in each case. Further, the GI50 is > 100 µM (inactive) in the experiment with 786-0; > 100 µM (inactive) with NCI-H522; over 100 µM in the experiment with HCT-15; > 100 µM (inactive) in the experiment with OVCAR-8; > 100 µM (inactive) with NCI-H23; > 100 µM (inactive) in the experiment with U-251. For the same molecule, the GI50 in the experiment on SN12C, with A498, with SW-620, in the experiment on SF-295 and in the experiment with UACC-62 was > 100 µM (inactive) throughout.
